Assay results: patent US20040220268A1, “Compound that directly stimulates phospholipase C activity” (priority 2003, published 2004)

Legend:
[1] = tested on: U937 cells; test: Formation of inositol phosphates in cells (in vivo PLC activity); assay type: cell-based, human
Protocol: U937 Cells were labeled with myo-[^3H] inositol (1 μCi/10^6 cells) for 24 h at 37° C. and then treated with various concentrations of m-3M3FBS or o-3M3FBS. Total inositol phosphates were eluted with a solution containing 1 M ammonium formate and 0.1 M formic acid. Radioactivity of the [3H] inositol phosphates was determined by counting in a scintillation counter. Data are presented as means ±S. E. M. of five independent experiments.
Cells grown in culture were harvested by centrifugation, washed with inositol-free RPMI 1640 medium, and resuspended at a density of 2×10^6 cells/ml in the same medium. The cells were then labeled with myo-[^3H] inositol (1 μCi/10^6 cells) for 24 h at 37° C. and rinsed twice with inositol-free RPMI 1640 medium containing 0.5% fetal bovine serum, 20 mM of Hepes at pH 7.2, 20 mM of LiCl, and bovine serum albumin (1 mg/ml) and then resuspended at a density of 2×10^7 cells/ml. A portion (0.1 ml) of the cell suspension was transferred to a microcentrifuge tube and incubated at 37° C. for 15 min. PIP2 hydrolysis was initiated by adding chemicals or solvents for the indicated times. Reactions were terminated by adding 200 μl of ice-cold 10% perchloric acid (HClO4). […] The radioactivity of the [3H] inositol phosphates was determined using a scintillation counter (Tri-Packard, Meriden, Conn.).

[2] = tested on: human neutrophils; test: [Ca2+]i measurement with fura-2 in neutrophils; assay type: cell-based
Protocol: Fura-2-loaded neutrophils were stimulated with m-3M3FBS or o-3M3FBS at 25 μM in extracellular calcium containing 2 mM or extracellular free calcium conditions. The results shown are representative of three independent experiments (A). Prepared neutrophils were loaded with fura-2 and then stimulated with 25 μM of m-3M3FBS in the absence or in the presence of 4 μM of U-73122 or U-73343 (B). Changes in 340 nm/380 nm excitation ratio were monitored, and converted to [Ca^2+]i levels. Data are presented as means ±S. E. M. of three independent experiments.
(§1) Freshly prepared human neutrophils were incubated in serum free RPMI 1640 medium with 3 μM of fura-2/AM at 37° C. for 30 min with continuous stirring. After washing with serum free RPMI 1640 medium, the cells were suspended in serum free RPMI containing 250 μM of sulfinpyrazone to prevent dye leakage. About 2×10^6 cells were suspended in Ca^2+ free Locke's solution (158.4 mM NaCl, 5.6 mM KCl, 1.2 mM MgCl2, 5 mM HEPES pH 7.3, 10 mM glucose, and 0.2 mM EGTA) for each measurement. Changes in the fluorescence ratio were measured at an emission wavelength of 500 nm for dual excitation wavelengths at 340 nm and 380 nm. The calibration of the fluorescence ratio versus [Ca^2+]i was performed as described by Grynkiewicz (Grynkiewicz et al., 1985).

[3] = tested on: PTX-sensitive Gi-proteins; test: PTX sensitivity of [Ca2+]i increase in neutrophils; assay type: cell-based, human; settings: PTX 1 μg/ml for 90 min; m-3M3FBS 25 μM, fMLF 1 μM
Protocol: Isolated neutrophils were preincubated with PTX (1 μg/ml) or vehicle for 90 min at 37° C. and stimulated with m-3M3FBS, FMLF, or ATP at concentrations of 25, 1, and 500 μM, respectively. Changes in the excitation ratios at 340 nm/380 nm were monitored. Data are presented as means ±S. E. M. of two independent experiments (A). cAMP levels were determined by a radio receptor assay. Prepared cells were treated with m-3M3FBS (25 μM) or histamine (100 μM) and then lysed with Tris-EDTA. After removing the supernatant, [ 3H] cAMP and protein were added, and the amount of [^3H] cAMP-protein complex was determined. The amount of unlabeled cAMP (in the sample) was then calculated by measuring the protein-bound radioactivity. Data are presented as means ±S. E. M. of two independent experiments (B). RGS2-GFP inducible HeLa cells were cultured for 48 h in the absence or in the presence of tetracycline, and the induction of RGS2-GFP was confirmed by Western blot analysis using anti-GFP antibody (C). RGS2-GFP inducible HeLa cells were cultured for 48 h in the absence or in the presence of tetracycline and loaded with fura-2. Cells were treated with histamine (100 μM) or m-3M3FBS (25 μM), and changes in the 340 nm/380 nm ratios were monitored and converted to [Ca^2+]i values. The results shown are representative of three independent experiments (C).
as §1

[4] = tested on: NIH3T3 cells; test: [Ca2+]i measurement with fura-2; assay type: cell-based, mouse; settings: NIH 3T3; 25 μM
Protocol: (§2) Neutrophils and HL60, and differentiated HL60, U937, NIH3T3, and PC12 cells were loaded with fura-2 and then stimulated with 25 μM of m-3M3FBS. Changes in the 340 nm/380 nm excitation ratio were monitored, and converted to [Ca^2+]i levels. Data are presented as means ±S. E. M. of three independent experiments.
U937 (human histiocytic lymphoma cells), HL60 (human promyelocytic leukemia cells), NIH3T3 (NIH Swiss mouse embryo fibroblasts), and PC12 (rat adrenal pheochromocytoma cells) were obtained from the American Type Culture Collection (Rockville, Md.) and HeLa (human adenocarcinoma cells) Tet-off cells were purchased from Clontech (Palo Alto, Calif., U.S.A.) and maintained as recommended. The cells were maintained at about 1×10^6 cells/ml under standard incubator conditions (humidified atmosphere, 95% air, 5% CO2, 37° C.). […]
Freshly prepared human neutrophils were incubated in serum free RPMI 1640 medium with 3 μM of fura-2/AM at 37° C. for 30 min with continuous stirring. […] Changes in the fluorescence ratio were measured at an emission wavelength of 500 nm for dual excitation wavelengths at 340 nm and 380 nm. The calibration of the fluorescence ratio versus [Ca^2+]i was performed as described by Grynkiewicz (Grynkiewicz et al., 1985).

[5] = tested on: PI3-kinase; test: Akt phosphorylation in U937 cells; assay type: cell-based, human; settings: 50 μM, data not shown
Source text: The result led us to check whether the compound act specifically on PLC or act on other enzymes that recognize phosphoinositols as substrates such as phosphoinositide-3-kinase (PI3-kinase). For this, we tested the effect of m-3M3FBS on the Akt phosphorylation that is dependent on the PI3-kinase in U937 cells. […] The result support our notion that m-3M3FBS acts specifically on PLC.

[6] = tested on: U937 cells; test: [Ca2+]i measurement with fura-2; assay type: cell-based, human; settings: 25 μM
Protocol: as §2
(§3) U937 (human histiocytic lymphoma cells), HL60 (human promyelocytic leukemia cells), NIH3T3 (NIH Swiss mouse embryo fibroblasts), and PC12 (rat adrenal pheochromocytoma cells) were obtained from the American Type Culture Collection (Rockville, Md.) and HeLa (human adenocarcinoma cells) Tet-off cells were purchased from Clontech (Palo Alto, Calif., U.S.A.) and maintained as recommended. The cells were maintained at about 1×10^6 cells/ml under standard incubator conditions (humidified atmosphere, 95% air, 5% CO2, 37° C.). HL60 cells were induced to differentiate into the granulocyte phenotype by adding dimethylsulfoxide (DMSO) (final concentration 1.25% v/v) for 5 days, as has been described before (Ithoh et al., 1998).
as §1

[7] = tested on: HL60 cells; test: [Ca2+]i measurement with fura-2; assay type: cell-based, human; settings: 25 μM
Protocol: as §2, §3, §1

[8] = tested on: differentiated HL60 cells; test: [Ca2+]i measurement with fura-2; assay type: cell-based, human; settings: 25 μM
Protocol: as §2, §3, §1

[9] = 25 μM, extracellular Ca2+ at physiologic levels (2 mM)

Question: What does the source list for `Cc1cc(C)c(S(=O)(=O)Nc2ccccc2C(F)(F)F)c(C)c1` [o-3M3FBS, 2,4,6-Trimethyl-N-(ortho 3-trifluoromethyl-phenyl)-benzenesulfonamide, reference compound]?
Answer: effect on PLC activity (inositol phosphate formation) [1]: no effect; [Ca2+]i increase [2, 9]: failed to elicit this response

Question: With `Cc1cc(C)c(S(=O)(=O)Nc2cccc(C(F)(F)F)c2)c(C)c1` [m-3M3FBS, 2,4,6-Trimethyl-N-(meta 3-trifluoromethyl-phenyl)-benzenesulfonamide] as the molecule, how does the “effect of PTX preincubation on the induced calcium increase” value [3] read?
Answer: insensitive to PTX

Question: What about the calcium increase [4] of the same molecule?
Answer: induced calcium increase

Question: What about the “phosphorylation level of Akt” value [5] of the same molecule?
Answer: couldn't significantly increase

Question: What about the calcium increase [6] of the same molecule?
Answer: induced calcium increase

Question: And the calcium increase [7]?
Answer: induced calcium increase

Question: What about the calcium increase [8] of the same molecule?
Answer: induced calcium increase

Question: And the “fold increase of accumulation of inositol phosphates” value ([1]; 50 μM)?
Answer: 2.5 fold

Question: And the “[Ca2+]i increase” value [2, 9]?
Answer: caused a [Ca^2+]i increase

Question: And the “[Ca2+]i increase” value ([2]; 25 μM, extracellular calcium-depleted condition)?
Answer: evoked a [Ca^2+]i increase

Question: And the “concentration of saturated maximal activity of [Ca2+]i release” value ([2]; concentration dependent, data not shown)?
Answer: 50 µM

Question: What about the calcium increase ([2]; human neutrophils, 25 μM) of the same molecule?
Answer: induced calcium increase
